Laboratory results reported in the NIST ThermoML archive (doi:10.1021/je050085p).
Numbers after ± are expanded uncertainties.

What was measured:
[1] = 308.15 K; 101.33 kPa; Liquid
[2] = refractive index (Na D-line) (dimensionless); settings: 101.33 kPa, Liquid, Standard Abbe refractometry
[3] = xn = mol fraction of the nth substance listed; settings: 308.15 K, 101 kPa, Liquid
[4] = refractive index (Na D-line) (dimensionless); xn = mol fraction of the nth substance listed; settings: 308.15 K, 101 kPa, Liquid, Standard Abbe refractometry
[5] = excess molar enthalpy (molar enthalpy of mixing); xn = mol fraction of the nth substance listed; settings: 308.15 K, 101 kPa, Liquid, Flow calorimetry

OCCc1ccccc1 [2-phenylethanol]
Settings	mass density [kg/m3]
[1]	1008.75 ± 0.56

[2]
Settings	refractive index
298.15 K	1.5321 ± 0.0007
308.15 K	1.5269 ± 0.0007

OCCc1ccccc1 [2-phenylethanol] + COc1ccccc1
Settings	excess molar enthalpy [kcal/mol]	mass density [kg/m3]	refractive index
[3], x2 = 0.0521	–	1007.44 ± 0.53	–
[3], x2 = 0.1223	–	1005.63 ± 0.53	–
[3], x2 = 0.2121	–	1003.26 ± 0.52	–
[3], x2 = 0.3153	–	1000.43 ± 0.52	–
[3], x2 = 0.4172	–	997.53 ± 0.52	–
[3], x2 = 0.5245	–	994.36 ± 0.52	–
[3], x2 = 0.617	–	991.55 ± 0.52	–
[3], x2 = 0.7479	–	987.5 ± 0.52	–
[3], x2 = 0.7673	–	986.9 ± 0.52	–
[3], x2 = 0.811	–	985.5 ± 0.5	–
[3], x2 = 0.9073	–	982.55 ± 0.52	–
[3], x2 = 0.9513	–	981.2 ± 0.52	–
[4], x2 = 0.0521	–	–	1.526 ± 0.0007
[4], x2 = 0.1223	–	–	1.5248 ± 0.0007
[4], x2 = 0.2121	–	–	1.5233 ± 0.0007
[4], x2 = 0.3153	–	–	1.5217 ± 0.0007
[4], x2 = 0.4172	–	–	1.52 ± 0.0007
[4], x2 = 0.5245	–	–	1.5182 ± 0.0007
[4], x2 = 0.617	–	–	1.5165 ± 0.0007
[4], x2 = 0.7479	–	–	1.514 ± 0.0007
[4], x2 = 0.7673	–	–	1.5136 ± 0.0007
[4], x2 = 0.811	–	–	1.5127 ± 0.0007
[4], x2 = 0.9073	–	–	1.5106 ± 0.0007
[4], x2 = 0.9513	–	–	1.5096 ± 0.0007
[5], x2 = 0.0437	0.0227 ± 0.000621	–	–
[5], x2 = 0.0838	0.0478 ± 0.00112	–	–
[5], x2 = 0.1206	0.0728 ± 0.00163	–	–
[5], x2 = 0.1546	0.0948 ± 0.00208	–	–
[5], x2 = 0.2153	0.134 ± 0.00287	–	–
[5], x2 = 0.2678	0.164 ± 0.00359	–	–
[5], x2 = 0.3543	0.207 ± 0.00454	–	–
[5], x2 = 0.4224	0.228 ± 0.00478	–	–
[5], x2 = 0.5232	0.25 ± 0.00526	–	–
[5], x2 = 0.6221	0.269 ± 0.00574	–	–
[5], x2 = 0.687	0.273 ± 0.00598	–	–
[5], x2 = 0.767	0.267 ± 0.00574	–	–
[5], x2 = 0.8145	0.251 ± 0.00526	–	–
[5], x2 = 0.8682	0.217 ± 0.00454	–	–
[5], x2 = 0.9006	0.185 ± 0.00406	–	–
[5], x2 = 0.9294	0.147 ± 0.00311	–	–
[5], x2 = 0.9634	0.0864 ± 0.00203	–	–

OCCCc1ccccc1 [3-phenyl-1-propanol]
Settings	mass density [kg/m3]
[1]	991.01 ± 0.52

[2]
Settings	refractive index
298.15 K	1.5259 ± 0.0006
308.15 K	1.5214 ± 0.0006
